Data set [1] relates to RAW264.7. As to the kind of experiment: Inhibition of LPS-stimulated nitric oxide production in […] cells at 100 uM pretreated for 2 hrs followed by LPS-stimulation after 16 hrs by Griess assay relative to control. Format: functional. Conditions: Mus musculus.
The subject of data set [2] is RAW264.7. As to the kind of experiment: Inhibition of LPS-stimulated nitric oxide production in […] cells pretreated for 2 hrs followed by LPS-stimulation after 16 hrs by Griess assay. It counts as functional, cell-based. The following applies: Mus musculus.
The nature of data set [3]: Cytotoxicity against LPS-stimulated […] cells assessed as cell viability pretreated for 2 hrs followed by LPS-stimulation after 16 hrs by alamar blue assay relative to control. Format: cell-based. More on the design: concentration or dose not given beside the values. Conditions: LPS-stimulated RAW264.7 cells; read-out: Activity.
Data set [4] has as its system RAW264.7. Put plainly: Cytotoxicity against LPS-stimulated […] cells assessed as reduction in cell viability at 100 uM pretreated for 2 hrs followed by LPS-stimulation after 16 hrs by alamar blue assay. Conditions: raw264.7, 16 h. Format: cell-based.

Turning to `COc1cc(OC)c2c(c1)O[C@H](c1cccc(O)c1O)[C@@H](O)C2=O`, in the data set with RAW264.7 [1], the inhibition at 100 µM is 70%.

As for `O=C1c2ccc(O)cc2O[C@H](c2cccc(O)c2O)[C@H]1O`, the inhibition at 100 µM in the data set on RAW264.7 [1] amounted to 70%. The IC50 in the data set with RAW264.7 [2] is 70.7 µM. For the same compound, in data set [3], the viability at 16 h was not below 100%. Besides, the Activity entry in the data set with RAW264.7 [4] is on record as “Non-Toxic”.

As to `COc1ccc2c(c1)O[C@@H](c1cccc(O)c1O)[C@H](O)C2=O`, the IC50 with RAW264.7 [2] was found to be 30.3 µM. Moreover, the viability at 16 h in data set [3] is not below 100%. Further, the Activity entry with RAW264.7 [4] is reported as “Non-Toxic”.

For `COc1ccc2c(c1)O[C@H](c1cccc(O)c1O)[C@@H](O)C2=O`, the 50% inhibitory concentration (IC50) with RAW264.7 [2] came out at 24.6 µM. In data set [3], the viability at 16 h was not below 100%. In the data set with RAW264.7 [4], the Activity entry is recorded as “Non-Toxic”.

For the compound `O=C1c2ccc(O)c(O)c2O[C@H](c2cccc(O)c2O)[C@H]1O`, the inhibition at 100 µM in the data set with RAW264.7 [1] came to 95%. In addition, in the data set on RAW264.7 [2], the IC50 worked out at 17 µM. The viability at 16 h in data set [3] is not below 100%. For the same compound, in the data set with RAW264.7 [4], the Activity entry is listed as “Non-Toxic”.

For the compound `COc1ccc2c(c1)C(=O)[C@H](O)[C@@H](c1cccc(O)c1O)O2`, in the data set on RAW264.7 [2], the IC50 is more than 100 µM. Further, the viability at 16 h in data set [3] is not below 100%. The Activity result in the data set on RAW264.7 [4] was “Non-Toxic”.

For the compound `O=C1c2c(O)cccc2O[C@H](c2cccc(O)c2O)[C@H]1O`, the IC50 with RAW264.7 [2] turned out to be 77.7 µM. Further, in data set [3], the viability at 16 h is not below 100%. The Activity entry with RAW264.7 [4] is “Non-Toxic”.

On to `O=C1c2c(O)cccc2O[C@@H](c2cccc(O)c2O)[C@@H]1O`, for which the IC50 in the data set with RAW264.7 [2] is more than 100 µM. Also, the viability at 16 h in data set [3] was not below 100%. Also, the Activity entry in the data set with RAW264.7 [4] is “Non-Toxic”.

As to `COc1ccc2c(c1O)O[C@H](c1cccc(O)c1O)[C@@H](O)C2=O`, the inhibition at 100 µM with RAW264.7 [1] worked out at 93%. In the data set on RAW264.7 [2], the IC50 was found to be 49.7 µM. Besides, in data set [3], the viability at 16 h was not below 100%. The Activity result in the data set with RAW264.7 [4] is listed as “Non-Toxic”.

On to `O=C1c2cc(O)ccc2O[C@@H](c2cccc(O)c2O)[C@@H]1O`, for which, in the data set on RAW264.7 [2], the IC50 is more than 100 µM. In data set [3], the viability at 16 h was not below 100%. The Activity entry in the data set on RAW264.7 [4] is “Non-Toxic”.

As to `COc1cc2c(cc1OC)C(=O)[C@H](O)[C@@H](c1cccc(O)c1O)O2`, in the data set on RAW264.7 [1], the inhibition at 100 µM stood at 93%. Besides, in the data set with RAW264.7 [2], the IC50 came to 50.3 µM. Further, the viability at 16 h in data set [3] was not below 100%. Also, in the data set with RAW264.7 [4], the Activity entry is given as “Non-Toxic”.

With `COc1ccc2c(c1)C(=O)[C@@H](O)[C@H](c1cccc(O)c1O)O2`, the IC50 in the data set on RAW264.7 [2] is more than 100 µM. In data set [3], the viability at 16 h was not below 100%. Besides, the Activity entry with RAW264.7 [4] is “Non-Toxic”.

`COc1ccc2c(c1O)O[C@@H](c1cccc(O)c1O)[C@H](O)C2=O`: the IC50 in the data set on RAW264.7 [2] came out at 88.5 µM. Further, the viability at 16 h in data set [3] is not below 100%. Also, in the data set on RAW264.7 [4], the Activity result is “Non-Toxic”.

Take `O=C1c2ccc(O)cc2O[C@@H](c2cccc(O)c2O)[C@@H]1O`: in the data set with RAW264.7 [2], the IC50 was more than 100 µM. Besides, the viability at 16 h in data set [3] was not below 100%. For the same compound, the Activity result with RAW264.7 [4] was “Non-Toxic”.

Turning to `O=C1c2ccccc2O[C@H](c2cccc(O)c2O)[C@H]1O`, the IC50 in the data set on RAW264.7 [2] is more than 100 µM. For the same compound, the viability at 16 h in data set [3] was not below 100%. Moreover, the Activity entry in the data set with RAW264.7 [4] is given as “Non-Toxic”.

For the compound `O=C1c2ccccc2O[C@@H](c2cccc(O)c2O)[C@@H]1O`, the IC50 with RAW264.7 [2] is more than 100 µM. The viability at 16 h in data set [3] is not below 100%. The Activity result with RAW264.7 [4] was “Non-Toxic”.

As to `O=C1c2cc(O)ccc2O[C@H](c2cccc(O)c2O)[C@H]1O`, the IC50 in the data set on RAW264.7 [2] is more than 100 µM. In data set [3], the viability at 16 h is not below 100%. Also, the Activity entry with RAW264.7 [4] is listed as “Non-Toxic”.

Regarding `COc1cc2c(cc1OC)C(=O)[C@@H](O)[C@H](c1cccc(O)c1O)O2`, the IC50 in the data set on RAW264.7 [2] is more than 100 µM. The viability at 16 h in data set [3] was not below 100%. In the data set with RAW264.7 [4], the Activity entry was “Non-Toxic”.

In the case of `O=C1c2ccc(O)c(O)c2O[C@@H](c2cccc(O)c2O)[C@@H]1O`, in the data set on RAW264.7 [1], the inhibition at 100 µM worked out at 0%. Further, the IC50 with RAW264.7 [2] was more than 100 µM. In addition, the viability at 16 h in data set [3] was not below 100%. In addition, the Activity entry in the data set on RAW264.7 [4] is listed as “Non-Toxic”.

With `Cc1ccc2c(c1)OC(c1cccc(O)c1O)C(O)C2=O` (racemic), the IC50 in the data set with RAW264.7 [2] came out at 31.8 µM. Moreover, the viability at 16 h in data set [3] is not below 100%. Also, the Activity result with RAW264.7 [4] is “Non-Toxic”.

`COc1cc(OC)c2c(c1)OC(c1cccc(O)c1O)C(O)C2=O` (racemic): in the data set on RAW264.7 [1], the inhibition at 100 µM was 58%. Further, the IC50 with RAW264.7 [2] was 57.6 µM. Also, the viability at 16 h in data set [3] was not below 100%. Besides, the Activity result in the data set on RAW264.7 [4] was “Non-Toxic”.

For the compound `Cc1ccc2c(c1)C(=O)C(O)C(c1cccc(O)c1O)O2` (racemic), the IC50 in the data set with RAW264.7 [2] is 45.3 µM. In addition, the viability at 16 h in data set [3] was not below 100%. Besides, the Activity result in the data set with RAW264.7 [4] is given as “Non-Toxic”.

For `Cc1cc2c(cc1C)C(=O)C(O)C(c1cccc(O)c1O)O2` (racemic), in the data set with RAW264.7 [2], the 50% inhibitory concentration (IC50) came out at 20.7 µM. The viability at 16 h in data set [3] was not below 100%. In the data set with RAW264.7 [4], the Activity result is “Non-Toxic”.

(Values after ChEMBL document CHEMBL4052718, “Stereospecific inhibition of nitric oxide production in macrophage cells by flavanonols: Synthesis and the structure-activity relationship. Part 2” (Bioorg Med Chem, 2017).)
